From patent US20110092486A1, “IH CHANNEL INHIBITORS FOR THE PROMOTION OF WAKEFULNESS” (priority 2006, published 2011)
Like-named read-outs stand apart in the source and are kept apart here. Marks after values point to notes of the source that are not given here.

Assays:
[1] = test system: sleep-wake organisation in the rat; experiment: Effect of Ih channel inhibition on sleep-wake organisation in rats (ACSO, EEG/EMG/movement); format: in vivo
Method: Methods: Sleep-wake organization was evaluated in instrumented male rats held on a 12:12 light-dark cycle. Classification of sleep-wake states was measured using an automated system (ACSO, Automatic Classification of Sleep Organization)^[i,ii] that records and processes EEG (cortical), EMG (neck muscle) and movement signals. Subjects were assigned to placebo, Org 34167 or ivabradine treatment groups and signals were recorded on two successive days. The first recording session provided a baseline recording following treatment with placebo only. This baseline day was used to extract a sleep classification algorithm for each individual subject. On the second day recording was started immediately after administration of placebo, Org 34167 (i.p.) or ivabradine (s.c.). Treatments were administered 2.5-3.0 h after lights-on. Data analysis and statistics: EEG, EMG and movement signals were used to classify every 2 second epoch into 6 different sleep stages using the algorithm derived for each individual subject from the baseline day recording. Six sleep-wake states were discriminated—Active waking (AW), Passive waking (PW), Light sleep (LS), Deep sleep (DS), Intermediate sleep (IS) and Rapid Eye Movement sleep (REM). Subsets of the six sleep-wake states were also combined to give Waking (PW and AW), Sleep (IS, REM, LS and DS) and NREM (LS and DS). For each treatment group, the median percentage of time spent in each sleep or waking state were calculated in 3 hour time intervals after drug injection. Significance was calculated by means of the two-sided rank sum test (Mann-Whitney test; P<0.025).

hHCN1 = target: T1, hHCN1 (Homo sapiens, UniProt O60741); experiment: Determination of Ih channel inhibition, time-dependent current in HEK.hHCN1.2H10 cells; format: cell-based; details: holding potential −40 mV
T1 construct: expressed in transfected cells; host or cells: HEK cells, clone HEK.hHCN1.2H10
T1 sequence (O60741 1-890): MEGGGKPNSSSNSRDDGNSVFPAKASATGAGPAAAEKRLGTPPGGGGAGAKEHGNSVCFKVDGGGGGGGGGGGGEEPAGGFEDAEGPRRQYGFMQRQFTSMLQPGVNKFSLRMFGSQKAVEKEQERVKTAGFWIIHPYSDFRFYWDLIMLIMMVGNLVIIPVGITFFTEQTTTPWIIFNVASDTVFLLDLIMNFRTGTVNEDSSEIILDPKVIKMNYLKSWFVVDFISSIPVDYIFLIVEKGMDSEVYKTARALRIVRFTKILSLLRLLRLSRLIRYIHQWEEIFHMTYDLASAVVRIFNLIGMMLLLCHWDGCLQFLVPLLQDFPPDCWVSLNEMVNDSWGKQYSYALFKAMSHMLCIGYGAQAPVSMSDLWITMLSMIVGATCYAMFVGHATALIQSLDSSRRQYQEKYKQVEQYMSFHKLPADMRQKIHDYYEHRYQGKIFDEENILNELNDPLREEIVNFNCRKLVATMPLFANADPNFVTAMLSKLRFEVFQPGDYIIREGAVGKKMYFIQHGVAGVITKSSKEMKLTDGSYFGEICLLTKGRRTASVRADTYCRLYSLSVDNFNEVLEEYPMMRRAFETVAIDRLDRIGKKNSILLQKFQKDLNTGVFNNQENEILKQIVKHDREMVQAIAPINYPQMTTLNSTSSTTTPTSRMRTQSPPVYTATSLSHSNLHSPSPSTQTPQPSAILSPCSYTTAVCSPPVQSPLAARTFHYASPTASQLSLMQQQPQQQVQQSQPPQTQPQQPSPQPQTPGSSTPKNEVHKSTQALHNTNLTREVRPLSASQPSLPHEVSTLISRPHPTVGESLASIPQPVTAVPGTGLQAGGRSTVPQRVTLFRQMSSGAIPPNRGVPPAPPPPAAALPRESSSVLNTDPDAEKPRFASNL
Method: Methods: HEK.hHCN1.2H10 cells growing in culture were dissociated using CDS to lift the cells. They were suspended in high K external solution and used in the assay at a density of 2×10^6 cells.ml^−1. Two separate runs were performed with voltage steps to −80 mV and […] for 1 s; the holding potential in both cases was −40 mV. The amplitude of the time-dependent current (assumed to be all hHCN1) was measured as the difference between the current recorded immediately after the capacity transient on stepping to the test voltage and the current measured after it had reached a steady state amplitude (PeakAmp metric). The amount of inhibition was assessed by calculating the ratio of Post Compound PeakAmp/Pre Compound PeakAmp. Thus a ratio of 1 would indicate no inhibition and 0 would indicate 100% inhibition. Compounds were tested at concentrations between 0.152 μM and 333.3 μM, and a dose-response curve constructed. The IC50 value was obtained (the concentration causing half maximal inhibition) and the pIC50 calculated (the negative logarithm of the molar concentration causing half-maximal inhibition).

Ih channel = Ih channel inhibition, statement without method
[2] = 0.3 mg/kg i.p., 0-3 h, lights on
[3] = 0.3 mg/kg i.p., 3-6 h, lights on
[4] = 0.3 mg/kg i.p., 6-9 h, lights on
[5] = 0.3 mg/kg i.p., 9-12 h, lights off
[6] = 1 mg/kg i.p., 9-12 h, lights off
[7] = 5 mg/kg s.c., 9-12 h, lights off
[8] = 15 mg/kg s.c., 0-3 h, lights on
[9] = 15 mg/kg s.c., 3-6 h, lights on
[10] = 15 mg/kg s.c., 6-9 h, lights on
[11] = 15 mg/kg s.c., 9-12 h, lights off
[12] = 50 mg/kg s.c., 0-3 h, lights on
[13] = 50 mg/kg s.c., 3-6 h, lights on
[14] = 50 mg/kg s.c., 6-9 h, lights on
[15] = 50 mg/kg s.c., 9-12 h, lights off

## C=CC[C@H](N)c1ccccc1-c1noc2ccccc12.Cl [Org 34167, (S)-2-(1,2-benzisoxazol-3-yl)-α-2-propenylbenzenemethanamine hydrochloride]
[1]; [2]
  median percentage of time spent in NREM: 46.4* %
  median percentage of time spent in Sleep: 54.1* %
  median percentage of time spent in Waking: 45.9* %
[1]; [3]
  median percentage of time spent in NREM: 63.5%
  median percentage of time spent in Sleep: 80.4%
  median percentage of time spent in Waking: 19.6%
[1]; [4]
  median percentage of time spent in NREM: 63.8%
  median percentage of time spent in Sleep: 77.9%
  median percentage of time spent in Waking: 22.1%
[1]; [5]
  median percentage of time spent in NREM: 40.9%
  median percentage of time spent in Sleep: 47.3%
  median percentage of time spent in Waking: 52.7%
[1]; 1 mg/kg i.p., 0-3 h, lights on
  median percentage of time spent in NREM: 7.6* %
  median percentage of time spent in Sleep: 7.6* %
  median percentage of time spent in Waking: 92.4* %
[1]; 1 mg/kg i.p., 3-6 h, lights on
  median percentage of time spent in NREM: 59.1* %
  median percentage of time spent in Sleep: 64.2* %
  median percentage of time spent in Waking: 35.8* %
[1]; 1 mg/kg i.p., 6-9 h, lights on
  median percentage of time spent in NREM: 63.9* %
  median percentage of time spent in Sleep: 81.2%
  median percentage of time spent in Waking: 18.8%
[1]; [6]
  median percentage of time spent in NREM: 42.1%
  median percentage of time spent in Sleep: 51.8%
  median percentage of time spent in Waking: 48.2%
[1]; Org 34167 i.p., first 3-6 hours of the session
  effect on waking and sleep compared to placebo: dose dependently increased waking and decreased sleep
hHCN1; voltage step to −80 mV for 1 s, read-out: IC50 μM −80 mV
  IC50: 3.2 µM
hHCN1; voltage step to −120 mV for 1 s, read-out: IC50 μM −120 mV
  IC50: 8.6 µM

## COc1cc2c(cc1OC)CC(=O)N(CCCN(C)C[C@H]1Cc3cc(OC)c(OC)cc31)CC2.Cl [ivabradine, (+)-3-[3-[N-[4,5-dimethoxybenzocyclobutan-1-(S)-ylmethyl]-N-methylamino]propyl]-7,8-dimethoxy-2,3,4,5-tetrahydro-1H-3-benzazepin-2-one hydrochloride]
[1]; 5 mg/kg s.c., 0-3 h, lights on
  median percentage of time spent in NREM: 49.5%
  median percentage of time spent in Sleep: 58.2%
  median percentage of time spent in Waking: 41.8%
[1]; 5 mg/kg s.c., 3-6 h, lights on
  median percentage of time spent in NREM: 68.9%
  median percentage of time spent in Sleep: 84.8%
  median percentage of time spent in Waking: 15.2%
[1]; 5 mg/kg s.c., 6-9 h, lights on
  median percentage of time spent in NREM: 56.2%
  median percentage of time spent in Sleep: 72.9%
  median percentage of time spent in Waking: 27.1%
[1]; [7]
  median percentage of time spent in NREM: 39.5%
  median percentage of time spent in Sleep: 50.4%
  median percentage of time spent in Waking: 49.6%
[1]; [8]
  median percentage of time spent in NREM: 53.2%
  median percentage of time spent in Sleep: 60.1* %
  median percentage of time spent in Waking: 39.9* %
[1]; [9]
  median percentage of time spent in NREM: 65.8%
  median percentage of time spent in Sleep: 83.0%
  median percentage of time spent in Waking: 17.0%
[1]; [10]
  median percentage of time spent in NREM: 60.0%
  median percentage of time spent in Sleep: 72.5%
  median percentage of time spent in Waking: 27.5%
[1]; [11]
  median percentage of time spent in NREM: 37.4%
  median percentage of time spent in Sleep: 45.2%
  median percentage of time spent in Waking: 54.8%
[1]; [12]
  median percentage of time spent in NREM: 41.4%
  median percentage of time spent in Sleep: 42.2* %
  median percentage of time spent in Waking: 57.8* %
[1]; [13]
  median percentage of time spent in NREM: 63.2%
  median percentage of time spent in Sleep: 80.4%
  median percentage of time spent in Waking: 19.6%
[1]; [14]
  median percentage of time spent in NREM: 65.0%
  median percentage of time spent in Sleep: 81.0%
  median percentage of time spent in Waking: 19.0%
[1]; [15]
  median percentage of time spent in NREM: 45.8* %
  median percentage of time spent in Sleep: 57.9* %
  median percentage of time spent in Waking: 42.1* %
[1]; ivabradine s.c., first 3 hours of the session
  effect on waking and sleep compared to placebo: dose dependently increased waking and decreased sleep

## NC(=O)C[S+]([O-])C(c1ccccc1)c1ccccc1 (centres unmarked) [modafanil]
Ih channel
  Ih channel inhibitor or not: not to be an Ih channel inhibitor
